The text below walks through data of US20120308608A1 (priority 2011, published 2012).

Experiment [1] deals with IFN beta promoter (MDCK-IFNb-Luc). It counts as cell-based, canine.
Experiment [2] has as its system IFN production by MDCK cells. In kind it is cell-based, canine.
For experiment [3], the system named is Influenza A/PR/8/34 virus. In kind it is cell-based.
Another experiment has as its system Influenza A/WSN/33 virus. It counts as cell-based.
For experiment [4], the system named is Influenza A/Vietnam/1203/2004 (H5N1) virus. It counts as cell-based. To be noted: A549 cells; multiplicity of 0.01 pfu; 2 days.
In experiment [5] the target is influenza virus replication machinery (PB1, PB2, PA, nucleocapsid protein of A/WSN/33) (Influenza A virus, UniProt P03427+P03430+P15659+P15682). In words: Influenza virus mini-genome assay. To be noted: A549 cells; increasing ASN2 concentrations. In kind it is cell-based, influenza virus strains A/WSN/33.

Each structure is given as a SMILES string. “Also recorded” adds a separate entry of the source.

On to `N=C(N/N=C1/C(=O)N(Cc2ccccc2)c2ccccc21)SCC(=O)Nc1ccccc1` [ASN2], for which the “induction of IFNb-luc reporter expression” value in experiment [1] is on record as “requires virus infection in order to induce IFN in the reporter assay; also recorded: depends on influenza A/PR/8/34 virus infection to induce IFN”. Besides, the “IFN production (IFN bioassay, VSV-GFP growth)” value in experiment [2] was “able to induce biologically relevant levels of IFN once the Compound-treated cells are also infected with A/PR/8/34; also recorded: able to induce the production of IFN only if the treated cells are infected with influenza A/PR/8/34 virus”. The “A/PR/8/34 virus replication (HA titer)” value in experiment [3] was “able to attenuate both A/PR/8/34 and A/WSN/33 virus replication in a dose-dependent manner; also recorded: attenuated”. Also, the “A/WSN/33 virus replication (HA titer)” value with Influenza A/WSN/33 virus is “able to attenuate both A/PR/8/34 and A/WSN/33 virus replication in a dose-dependent manner; also recorded: attenuated”. For the same compound, in experiment [4], the “A/Vietnam/1203/2004 (H5N1) virus replication” value is “antiviral activity; also recorded: attenuated”. Further, the mini-genome luciferase activity entry in experiment [5] was “decreased with increasing concentrations; also recorded: inhibited”.
In the case of `NS(=O)(=O)c1ccc2nc3c(nc2c1)-c1cccc2cccc-3c12` [ENA51], the “induction of IFNb-luc reporter expression” value in experiment [1] is “induces IFN independent of virus”.
